Data as given in ChEMBL document CHEMBL5113506, “Discovery of novel human lactate dehydrogenase inhibitors: Structure-based virtual screening studies and biological assessment” (Eur J Med Chem, 2022).
Activity calls are given as the source filed them. The rule behind the calls is not given here.

Columns and labels:
[1] = target: T1, L-lactate dehydrogenase A chain (Homo sapiens, UniProt P00338); assay: Inhibition of LDHA in human liver using pyruvate as substrate incubated for 3 mins by fluorescence assay; assay type: tissue-based
Medulloblastoma cell [2] = assay: Antiproliferation activity against human Med1 assessed as reduction in cell viability at […] after 24 hrs by Trypan blue exclusion assay; assay type: functional, cell-based
[3] = Antiproliferation activity against human Med1 assessed as reduction in cell viability after 24 hrs by Trypan blue exclusion assay; assay type: functional, cell-based; conditions: Medulloblastoma cell
Medulloblastoma cell [4] = assay: Antiproliferation activity against human Med1 assessed as reduction in cell viability at 1 mM after 24 hrs by Trypan blue exclusion assay; assay type: functional, cell-based
Medulloblastoma cell [5] = assay: Antiproliferation activity against human Med1 assessed as reduction in cell viability at 100 uM after 24 hrs by Trypan blue exclusion assay; assay type: functional, cell-based
HCT-116 [6] = assay: Induction of […] in human HCT-116 cells assessed as increase in LC3B-I lipidation protein expression level after 48 hrs in presence of rotenone by Western blot analysis; assay type: functional, cell-based
HCT-116 [7] = assay: Induction of apoptosis in human HCT-116 cells assessed as increase in cleaved PARP protein expression level after 48 hrs in presence of rotenone by Western blot analysis; assay type: functional, cell-based
A549 = assay: Antiproliferation activity against human A549 cells assessed as reduction in cell viability after 24 hrs by Trypan blue exclusion assay; assay type: functional, cell-based
[8] = target: T1, L-lactate dehydrogenase A chain; assay: Inhibition of LDHA in human Med1 cells assessed as reduction in lactate production by measuring ECAR using pyruvate as substrate incubated 6 hrs by seahorse extracellular flux analysis; assay type: cell-based; conditions: Medulloblastoma cell
HCT-116 [9] = assay: Antiproliferation activity against human HCT-116 cells assessed as reduction in cell viability after 24 hrs by Trypan blue exclusion assay; assay type: functional, cell-based
PANC-1 = assay: Antiproliferation activity against human PANC-1 cells assessed as reduction in cell viability after 24 hrs by Trypan blue exclusion assay; assay type: functional, cell-based
[10] = target: T1, L-lactate dehydrogenase A chain; assay: Inhibition of LDHA in human Med1 cells using pyruvate as substrate incubated 10 mins by spectrophotometric analysis; assay type: cell-based, Medulloblastoma cell
SW-620 = assay: Antiproliferation activity against human SW-620 cells assessed as reduction in cell viability after 24 hrs by Trypan blue exclusion assay; assay type: functional, cell-based
HCT-116 [11] = assay: Induction of autophagy in human HCT-116 cells assessed as increase in LC3B-I lipidation protein expression level at 80 to 320 uM after 48 hrs by Western blot analysis; assay type: functional, cell-based; conditions: dose 80-320 µM
HCT-116 [12] = assay: Induction of apoptosis in human HCT-116 cells assessed as increase in cleaved PARP protein expression level at 80 to 320 uM after 48 hrs by Western blot analysis; assay type: functional, cell-based; conditions: dose 80-320 µM
HCT-116 [13] = assay: Antiproliferation activity against human HCT-116 cells assessed as reduction in cell viability after 24 hrs in presence of rotenone by Trypan blue exclusion assay; assay type: functional, cell-based
[14] = target: L-lactate dehydrogenase B chain (Mus musculus, UniProt P16125); assay: Inhibition of mouse LDHB using sodium pyruvate as substrate
Chain of L-lactate dehydrogenase B chain (P16125 whole entry): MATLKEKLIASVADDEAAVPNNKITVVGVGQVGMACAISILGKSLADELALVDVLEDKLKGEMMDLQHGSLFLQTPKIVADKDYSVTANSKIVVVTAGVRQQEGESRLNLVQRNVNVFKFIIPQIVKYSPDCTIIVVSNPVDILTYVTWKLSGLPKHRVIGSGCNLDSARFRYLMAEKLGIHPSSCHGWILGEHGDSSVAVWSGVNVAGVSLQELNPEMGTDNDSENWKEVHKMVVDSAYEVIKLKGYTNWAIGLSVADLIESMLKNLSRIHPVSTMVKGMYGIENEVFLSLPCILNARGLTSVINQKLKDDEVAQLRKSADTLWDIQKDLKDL

| Compound | Activity (Medulloblastoma cell [2]) | IC50 [3] [nM] | Activity (Medulloblastoma cell [4]) | also measured |
| --- | --- | --- | --- | --- |
| O=c1cc2c(=O)oc3cc(O)c(O)oc3c2c(O)c1O |  |  |  | Ki [1]: 5460 nM |
| Cn1nc(C2CCN(C(=O)NCc3ccccc3)CC2)n(-c2ccccc2)c1=O | Active | 1510 | Active |  |
| O=C(O)c1nnn(-c2ccc(F)cc2F)c1-c1ccccc1 | Active | 1300 | Active |  |
| NC(=O)C(=O)O [SODIUM OXAMATE] |  | 15900 |  |  |
| Cc1ccc(-c2c(C)c(C(=O)O)nn2-c2ccc(Cl)c(Cl)c2)cc1C | Active | 1140 | Active |  |
| Cc1nn(-c2ncc(NC(=O)C3(c4ccccc4)CCOCC3)cn2)c(C)c1C | Active | 29.8 | Active | Activity (Medulloblastoma cell [5]): Active |
| CSc1sc(C(=O)O)cc1-c1nc(-c2ccc(C)cc2)cs1 | Active | 964 | Active |  |
| O=C(NCc1nn(C2CCCC2)c(=O)c2ccccc12)Nc1ccccc1F | Active | 8460 | Active |  |
| O=c1cc2c(nn1CC1CCN(C3=NS(=O)(=O)c4ccccc43)CC1)CCC2 | Active | 81.8 | Active | Activity (HCT-116 [6]): Active; Activity (HCT-116 [7]): Active; Activity (A549): Active; Activity (Medulloblastoma cell [5]): Active; inhibition [8]: Active; Activity (HCT-116 [9]): Active; Activity (PANC-1): Active; IC50 [10]: 12 nM; Activity (SW-620): Active; Activity (HCT-116 [11]): Active; Activity (HCT-116 [12]): Active; Activity (HCT-116 [13]): Active |
| Cc1cc2c(C(C)C)c(O)c(O)c(C=O)c2c(O)c1-c1c(C)cc2c(C(C)C)c(O)c(O)c(C=O)c2c1O [GOSSYPOL] |  |  |  | Ki [14]: 1400 nM |
| CSc1cccc(-n2c(=O)n(Cc3ccc(C(=O)O)cc3)c(=O)c3[nH]cnc32)c1 | Active | 8310 |  |  |
| Cc1cc(C(=O)N(CCc2cccs2)C2CCOCC2)no1 | Active | 1160 | Active |  |
